Test results published in PubChem BioAssay (NCI).
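Cultured in 96-well plates, cells were exposed to test compound for 48 hours across five concentrations. GI50 is the concentration that inhibits growth by half. Definition used: TGI = concentration required for complete inhibition of growth.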

Assays:
Test in all cases: NCI anticancer screen, dose series, 48 h
IGROV1 ovarian = system: IGROV1 ovarian
M14 melanoma = system: M14 melanoma
A549 NSCLC = system: A549 NSCLC
UO-31 renal = system: UO-31 renal
NCI-H226 lung = system: NCI-H226 lung
SK-OV-3 ovarian = system: SK-OV-3 ovarian
HT29 colon = system: HT29 colon
HOP-92 NSCLC = system: HOP-92 NSCLC
MDA-MB-231 breast = system: MDA-MB-231 breast
RXF 393 renal = system: RXF 393 renal
KM12 colon = system: KM12 colon
SK-MEL-28 melanoma = system: SK-MEL-28 melanoma
SW-620 colon = system: SW-620 colon
ACHN renal = system: ACHN renal
UACC-257 melanoma = system: UACC-257 melanoma
MDA-N = system: MDA-N
MDA-MB-435 = system: MDA-MB-435
HCT-116 colon = system: HCT-116 colon
NCI-H23 lung = system: NCI-H23 lung
MOLT-4 leukemia = system: MOLT-4 leukemia
HS 578T breast = system: HS 578T breast
MALME-3M melanoma = system: MALME-3M melanoma
SK-MEL-2 melanoma = system: SK-MEL-2 melanoma
UACC-62 melanoma = system: UACC-62 melanoma
DU-145 prostate = system: DU-145 prostate
T-47D breast = system: T-47D breast
TK-10 renal = system: TK-10 renal
NCI-H460 lung = system: NCI-H460 lung
SR leukemia = system: SR leukemia
SK-MEL-5 melanoma = system: SK-MEL-5 melanoma
CAKI-1 renal = system: CAKI-1 renal
SF-268 CNS = system: SF-268 CNS
LOX IMVI melanoma = system: LOX IMVI melanoma
NCI-H522 lung = system: NCI-H522 lung
OVCAR-4 ovarian = system: OVCAR-4 ovarian
OVCAR-8 ovarian = system: OVCAR-8 ovarian
NCI/ADR-RES ovarian = system: NCI/ADR-RES ovarian
SF-295 CNS = system: SF-295 CNS
HCT-15 colon = system: HCT-15 colon
HOP-62 NSCLC = system: HOP-62 NSCLC
SNB-19 CNS = system: SNB-19 CNS
CCRF-CEM leukemia = system: CCRF-CEM leukemia
U251 CNS = system: U251 CNS
BT-549 breast = system: BT-549 breast
PC-3 prostate = system: PC-3 prostate
SNB-75 CNS = system: SNB-75 CNS
786-0 renal = system: 786-0 renal
RPMI-8226 leukemia = system: RPMI-8226 leukemia
MCF7 breast = system: MCF7 breast
SF-539 CNS = system: SF-539 CNS
OVCAR-5 ovarian = system: OVCAR-5 ovarian
K-562 leukemia = system: K-562 leukemia
SN12C renal = system: SN12C renal
EKVX NSCLC = system: EKVX NSCLC
HCC-2998 colon = system: HCC-2998 colon
HL-60(TB) leukemia = system: HL-60(TB) leukemia
OVCAR-3 ovarian = system: OVCAR-3 ovarian
A498 renal = system: A498 renal
COLO 205 colon = system: COLO 205 colon

Structure (SMILES): O=C1C=CC(=O)c2c(O)c(N3CCSCC3)c(Cl)c(O)c21
- TGI (IGROV1 ovarian): 2 µM
- TGI (M14 melanoma): 1.05 µM
- TGI (A549 NSCLC): 1.79 µM
- TGI (UO-31 renal): 1.81 µM
- TGI (NCI-H226 lung): 1.82 µM
- TGI (SK-OV-3 ovarian): 4 µM
- TGI (HT29 colon): 1.47 µM
- TGI (HOP-92 NSCLC): 2.21 µM
- TGI (MDA-MB-231 breast): 1.03 µM
- TGI (RXF 393 renal): 0.781 µM
- TGI (KM12 colon): 1.38 µM
- TGI (SK-MEL-28 melanoma): 2.16 µM
- TGI (SW-620 colon): 0.548 µM
- TGI (ACHN renal): 1.48 µM
- TGI (UACC-257 melanoma): 2.88 µM
- TGI (MDA-N): 1.48 µM
- TGI (MDA-MB-435): 1.94 µM
- TGI (HCT-116 colon): 1.03 µM
- TGI (NCI-H23 lung): 0.689 µM
- TGI (MOLT-4 leukemia): 3.82 µM
- TGI (HS 578T breast): 2.18 µM
- TGI (MALME-3M melanoma): 1.34 µM
- TGI (SK-MEL-2 melanoma): 0.603 µM
- TGI (UACC-62 melanoma): 1.75 µM
- TGI (DU-145 prostate): 2.02 µM
- TGI (T-47D breast): 2.29 µM
- TGI (TK-10 renal): 1.56 µM
- TGI (NCI-H460 lung): 1.71 µM
- TGI (SR leukemia): 1.24 µM
- TGI (SK-MEL-5 melanoma): 1.69 µM
- TGI (CAKI-1 renal): 1.73 µM
- TGI (SF-268 CNS): 1.74 µM
- TGI (LOX IMVI melanoma): 0.362 µM
- TGI (NCI-H522 lung): 1.29 µM
- TGI (OVCAR-4 ovarian): 1.77 µM

Structure (SMILES): c1ccc2c(c1)nc(NCCN1CCNCC1)c1c3ccccc3[nH]c21
- GI50 (OVCAR-8 ovarian): 0.111 µM
- TGI (OVCAR-8 ovarian): 0.883 µM
- GI50 (IGROV1 ovarian): 0.84 µM
- TGI (IGROV1 ovarian): 8.18 µM
- GI50 (M14 melanoma): 1.24 µM
- TGI (M14 melanoma): 2.81 µM
- GI50 (NCI/ADR-RES ovarian): 1.52 µM
- TGI (NCI/ADR-RES ovarian): 7.63 µM
- GI50 (SF-295 CNS): 0.618 µM
- TGI (SF-295 CNS): 2.21 µM
- GI50 (A549 NSCLC): 0.206 µM
- TGI (A549 NSCLC): 1.21 µM
- GI50 (UO-31 renal): 0.567 µM
- TGI (UO-31 renal): 2.05 µM
- GI50 (NCI-H226 lung): 1.2 µM
- TGI (NCI-H226 lung): 3.91 µM
- GI50 (HCT-15 colon): 0.176 µM
- TGI (HCT-15 colon): 0.7 µM
- GI50 (SK-OV-3 ovarian): 2.16 µM
- TGI (SK-OV-3 ovarian): 8.53 µM
- GI50 (HT29 colon): 0.167 µM
- TGI (HT29 colon): 1.53 µM
- GI50 (HOP-92 NSCLC): 0.43 µM
- TGI (HOP-92 NSCLC): 2.62 µM
- GI50 (MDA-MB-231 breast): 0.676 µM
- TGI (MDA-MB-231 breast): 2.28 µM
- GI50 (RXF 393 renal): 0.438 µM
- TGI (RXF 393 renal): 2.04 µM
- GI50 (HOP-62 NSCLC): 0.404 µM
- TGI (HOP-62 NSCLC): 2.2 µM
- GI50 (KM12 colon): 0.369 µM
- TGI (KM12 colon): 2.56 µM
- GI50 (SK-MEL-28 melanoma): 1.37 µM
- TGI (SK-MEL-28 melanoma): 2.8 µM
- GI50 (SNB-19 CNS): 0.381 µM
- TGI (SNB-19 CNS): 3.15 µM
- GI50 (SW-620 colon): 0.25 µM
- TGI (SW-620 colon): 2.54 µM
- GI50 (ACHN renal): 0.369 µM
- TGI (ACHN renal): 2.38 µM
- GI50 (CCRF-CEM leukemia): 0.086 µM
- TGI (CCRF-CEM leukemia): 1.82 µM
- GI50 (UACC-257 melanoma): 1.71 µM
- TGI (UACC-257 melanoma): 3.27 µM
- GI50 (MDA-MB-435): 0.798 µM
- TGI (MDA-MB-435): 2.24 µM
- GI50 (U251 CNS): 0.377 µM
- TGI (U251 CNS): 1.94 µM
- GI50 (HCT-116 colon): 0.165 µM
- TGI (HCT-116 colon): 1.42 µM
- GI50 (NCI-H23 lung): 0.666 µM
- TGI (NCI-H23 lung): 2.03 µM
- GI50 (BT-549 breast): 1.53 µM
- TGI (BT-549 breast): 4.04 µM
- GI50 (MOLT-4 leukemia): 0.0983 µM
- TGI (MOLT-4 leukemia): 0.887 µM
- GI50 (PC-3 prostate): 0.356 µM
- TGI (PC-3 prostate): 1.97 µM
- GI50 (HS 578T breast): 1.19 µM
- TGI (HS 578T breast): 4.67 µM
- GI50 (MALME-3M melanoma): 1.79 µM
- TGI (MALME-3M melanoma): 3.82 µM
- GI50 (SNB-75 CNS): 1.44 µM
- TGI (SNB-75 CNS): 2.86 µM
- GI50 (SK-MEL-2 melanoma): 1.41 µM
- TGI (SK-MEL-2 melanoma): 2.89 µM
- GI50 (786-0 renal): 0.342 µM
- TGI (786-0 renal): 1.6 µM
- TGI (RPMI-8226 leukemia): 0.399 µM
- GI50 (UACC-62 melanoma): 1.76 µM
- TGI (UACC-62 melanoma): 3.69 µM
- GI50 (MCF7 breast): 0.0799 µM
- TGI (MCF7 breast): 0.709 µM
- GI50 (SF-539 CNS): 0.616 µM
- TGI (SF-539 CNS): 2.2 µM
- GI50 (DU-145 prostate): 0.227 µM
- TGI (DU-145 prostate): 1.4 µM
- GI50 (OVCAR-5 ovarian): 0.477 µM
- TGI (OVCAR-5 ovarian): 3.15 µM
- GI50 (K-562 leukemia): 0.0935 µM
- TGI (K-562 leukemia): 2.07 µM
- GI50 (SN12C renal): 0.19 µM
- TGI (SN12C renal): 1.18 µM
- GI50 (T-47D breast): 0.903 µM
- TGI (T-47D breast): 3.83 µM
- GI50 (TK-10 renal): 1.34 µM
- TGI (TK-10 renal): 6.91 µM
- GI50 (NCI-H460 lung): 0.221 µM
- TGI (NCI-H460 lung): 1.14 µM
- GI50 (SR leukemia): 0.226 µM
- TGI (SR leukemia): 1.33 µM
- GI50 (SK-MEL-5 melanoma): 1.27 µM
- TGI (SK-MEL-5 melanoma): 2.61 µM
- GI50 (CAKI-1 renal): 0.454 µM
- TGI (CAKI-1 renal): 2.81 µM
- GI50 (EKVX NSCLC): 0.742 µM
- TGI (EKVX NSCLC): 4.38 µM
- GI50 (SF-268 CNS): 0.39 µM
- TGI (SF-268 CNS): 2.01 µM
- GI50 (HCC-2998 colon): 0.425 µM
- TGI (HCC-2998 colon): 1.68 µM
- GI50 (LOX IMVI melanoma): 0.295 µM
- TGI (LOX IMVI melanoma): 1.03 µM
- GI50 (NCI-H522 lung): 0.22 µM
- TGI (NCI-H522 lung): 1.07 µM
- GI50 (HL-60(TB) leukemia): 0.308 µM
- TGI (HL-60(TB) leukemia): 1.36 µM
- GI50 (OVCAR-3 ovarian): 0.413 µM
- TGI (OVCAR-3 ovarian): 2.51 µM
- GI50 (A498 renal): 1.56 µM
- TGI (A498 renal): 3.27 µM
- GI50 (COLO 205 colon): 0.346 µM
- TGI (COLO 205 colon): 1.87 µM
- GI50 (OVCAR-4 ovarian): 0.379 µM
- TGI (OVCAR-4 ovarian): 2.24 µM

Structure (SMILES): COc1cc(OC)c(CSCC(NC(=O)OCC2c3ccccc3-c3ccccc32)C(=O)O)c(OC)c1 (stereo not drawn)
- TGI (OVCAR-8 ovarian): > 10 µM
- TGI (IGROV1 ovarian): > 10 µM
- TGI (M14 melanoma): > 10 µM
- TGI (NCI/ADR-RES ovarian): > 10 µM
- TGI (SF-295 CNS): > 10 µM
- TGI (A549 NSCLC): > 10 µM
- TGI (UO-31 renal): > 10 µM
- TGI (NCI-H226 lung): > 10 µM
- TGI (HCT-15 colon): > 10 µM
- TGI (HT29 colon): > 10 µM
- TGI (HOP-92 NSCLC): > 10 µM
- TGI (MDA-MB-231 breast): > 10 µM
- TGI (RXF 393 renal): > 10 µM
- TGI (KM12 colon): > 10 µM
- TGI (SK-MEL-28 melanoma): > 10 µM
- TGI (SNB-19 CNS): > 10 µM
- TGI (SW-620 colon): > 10 µM
- TGI (ACHN renal): > 10 µM
- TGI (MDA-N): > 10 µM
- TGI (MDA-MB-435): > 10 µM
- TGI (U251 CNS): > 10 µM
- TGI (HCT-116 colon): > 10 µM
- TGI (NCI-H23 lung): > 10 µM
- TGI (PC-3 prostate): > 10 µM
- TGI (SNB-75 CNS): > 10 µM
- TGI (SF-539 CNS): > 10 µM
- TGI (DU-145 prostate): > 10 µM
- TGI (OVCAR-5 ovarian): > 10 µM
- TGI (SN12C renal): > 10 µM
- TGI (TK-10 renal): > 10 µM
- TGI (SK-MEL-5 melanoma): > 10 µM
- TGI (CAKI-1 renal): > 10 µM
- TGI (EKVX NSCLC): > 10 µM
- TGI (SF-268 CNS): > 10 µM
- TGI (OVCAR-3 ovarian): > 10 µM
- TGI (A498 renal): > 10 µM
- TGI (COLO 205 colon): > 10 µM
- TGI (OVCAR-4 ovarian): > 10 µM
